{"source": "patent US7122518B2", "about": "“Method for preventing or reducing collateral phototoxic damage to neighboring tissues during photodynamic therapy of a target tissue” (New York University, priority 2002, dated 2006)", "key": {"ARPE cells": {"tested_on": "ARPE cells", "assay": "Competitive quenching by hypericin versus DTHe in ARPE cells (Hemacolor viability)", "details": "for cell viability: 1.73 J/cm^2, Hemacolor after 24 hrs (FIG. 7A)", "method": "The cells were treated with the added dianthraquinone compounds for 3 hrs. and with added verteporfin for the last two hrs. The cells were then exposed to 1.73 J/cm^2 of light irradiation at >650 nm and cell viability monitored after 24 hrs. in culture.\n(§1) For the Hemacolor assay the cells were fixed with methanol, stained with Hemacolor reagents (Merck, Darmstadt, Germany), the dye eluted and quantified in an ELISA reader at 650 nm. PDT efficacy was expressed as percentage of viable cells in treated wells relative to untreated controls, calculated as (OD650, treated/OD650, untreated)×100.\nARPE or EH endothelial hybridoma cells were seeded at 5×10^4 cells/well in 96 well flat bottom microplates. The cells were allowed to adhere overnight, after which time DTHe or hypericin were added to ARPE cells (FIG. 7A) or to endothelial hybridoma cells (FIG. 7B) at concentrations of 10 or 20 μg/ml and the cells incubated at 37° C. in complete darkness. After one hour incubation with hypericin, verteporfin at concentrations of 0.1, 0.25 and 0.5 μg/ml was added to the cultures, which were then incubated at 37° C. for two additional hours. The supernatants were removed, the cells washed with PBS and the cultures exposed to light irradiation at a dose of 1.73 J/cm^2 at 689 nm. The cultures were then incubated at 37° C. for an additional 24 hrs and cell viability was then determined via the hemacolor assay."}, "ARPE-19 cells": {"tested_on": "ARPE-19 cells", "assay": "Protection of ARPE cells from verteporfin-induced phototoxicity (MTT viability)", "details": "for viability at 20 µM: Homo sapiens, ARPE-19, light or radiation study", "method": "ARPE or EH cells were plated in 96 well flat bottom microplates 2×10^4 cells/well. The cells were allowed to attach to the plate surface and hypericin was added to the cultures in complete darkness (ambient light kept below <0.03 mW/cm^2 to prevent hypericin-mediated phototoxicity) for time intervals ranging from 3–6 hrs. Verteporfin was then added and was present for the last two hours of the incubation period. At the end of incubation period, the growth medium containing hypericin and verteporfin was removed and replaced with phosphate buffered saline (PBS) and then photosensitized with red light using a fiber-optic non-coherent light delivery system (SeNet Ltd, Israel) in combination with K700 broadband interference filter with central wavelengths at 700 nm and half-height bandwidth of ±40 nm (Rolyn Optics, Covina, Calif.) to selectively excite verteporfin but not hypericin (excitable at 546 and 590 nm). […] The fluence rate (mW/cm^2) was measured with a Model IL 1400A radiometer/photometer (International Light Inc., Newburyport, Mass.).\nTwo methods have been used to monitor cell viability: the MTT assay which measures reduction of MTT to formasan by mitochondria of viable cells and by the Hemacolor assay, a calorimetric microtiter assay that quantifies the amount of dye that binds to viable adherent cells (Keisari, 1992). […] MTT was added to the cells following light irradiation and the plates were incubated for three hours and then analyzed in an ELISA reader at 560 nm. […]\nIn order to examine whether the red/ox properties of hypericin in the dark can impact on the phototoxic properties of verteporfin (VP), retinal pigmented epithelial cells (ARPE-19) in monolayer cultures were loaded with hypericin by exposure to 5, 10 and 20 μM of this compound for three and six hrs. […] Following irradiation, drug-free fresh medium was introduced, the cells incubated at 37° C. in a 5% CO2 incubator for additional 24 hrs and cell viability then monitored using the MTT assay."}, "EH endothelial cells": {"tested_on": "EH endothelial cells", "assay": "Protection of EH endothelial cells from verteporfin-induced phototoxicity (viability)", "details": "for viability at 20 µM: Homo sapiens, Endothelial cell, light or radiation study", "method": "ARPE or EH cells were plated in 96 well flat bottom microplates 2×10^4 cells/well. The cells were allowed to attach to the plate surface and hypericin was added to the cultures in complete darkness (ambient light kept below <0.03 mW/cm^2 to prevent hypericin-mediated phototoxicity) for time intervals ranging from 3–6 hrs. Verteporfin was then added and was present for the last two hours of the incubation period. At the end of incubation period, the growth medium containing hypericin and verteporfin was removed and replaced with phosphate buffered saline (PBS) and then photosensitized with red light using a fiber-optic non-coherent light delivery system (SeNet Ltd, Israel) in combination with K700 broadband interference filter with central wavelengths at 700 nm and half-height bandwidth of ±40 nm (Rolyn Optics, Covina, Calif.) to selectively excite verteporfin but not hypericin (excitable at 546 and 590 nm). The cultures were then returned to standard growth medium, cultured for 24 hrs in a 37° C., 5% CO2 and cell viability then assayed by the MTT or Hemacolor assays. The fluence rate (mW/cm^2) was measured with a Model IL 1400A radiometer/photometer (International Light Inc., Newburyport, Mass.).\nTwo methods have been used to monitor cell viability: the MTT assay which measures reduction of MTT to formasan by mitochondria of viable cells and by the Hemacolor assay, a calorimetric microtiter assay that quantifies the amount of dye that binds to viable adherent cells (Keisari, 1992). The cells were plated in flat-bottomed 96 well plates in 200 μl medium containing the photosensitizer. MTT was added to the cells following light irradiation and the plates were incubated for three hours and then analyzed in an ELISA reader at 560 nm. Corrections were made for non-specific absorption of MTT subtracting background values generated in cell free blank wells containing medium and HY at each dose level and MTT.\nas §1\nEH cells were used for this purpose."}, "[1]": {"assay": "Hypericin distribution among the layers of the retina after i.v. administration", "method": "Rats were sacrificed at 15 min, 2 hrs, 6 hrs and 8 hrs after i.v. administration of hypericin, 2 mg/kg. The eyes were enucleated and frozen initially at −80° C. and subsequently in liquid nitrogen and several cryostat sections (5-μm width) sliced from each sample. To prevent hypericin extraction from the retinal tissues during staining the histological tissue distribution of hypericin among the different layers of the retina was initially examined under an Olympus phase contrast and fluorescence microscope, and the data photographed with a computer-linked digital camera (Multipixel Spectral Imaging System, Applied Spectral Imaging Inc., Israel. Hypericin was excited at 477 nm and its fluorescence recorded by documenting emission intensity at 602 nm. The photographed locations were marked and the sections then stained with Hematoxylin-eosin (H&E) for confirmation of retinal layer identity and compared to the corresponding fluorescence and light microscopy images.\nHypericin at a dose of 2 mg/kg was administered to the tail vein. At 15 minutes, 2, 4, 6 and 8 hrs the rats were anesthesized, the eyes enucleated and frozen sections prepared. The sections were then analyzed by Multipixel Spectral Imaging."}, "[2]": {"assay": "Biodistribution of hypericin in tissues of tumor-bearing mice (fluorescence)", "assay_type": "in vivo", "details": "BALB/c mice bearing breast adenocarcinoma tumors, preliminary (FIG. 5)", "method": "The present inventor aimed to overcome this obstacle by using pharmacokinetic considerations. Hypericin is a lipophilic agent with an alpha half life of approximately 1–2 hours in the circulation. […] It is therefore possible to generate conditions in which hypericin has cleared from the circulation and concentrated in the tissues where it can be useful in protecting from collateral photodynamic damage."}, "[3]": {"details": "cited from earlier work"}, "[4]": {"details": "in vivo, iv; cited from earlier work"}, "[5]": {"details": "verteporfin 0.25 μg/ml plus quencher 10 μg/ml"}, "[6]": {"details": "verteporfin 0.25 μg/ml plus quencher 20 μg/ml"}}, "note": "Entries after “also recorded” stand apart in the source; their conditions may differ. Where two headings read alike, the source gives them in different places."}
{"compound": "Cc1ccc2c(=O)c3c(O)cc(O)c4c5c(O)cc(O)c6c(=O)c7ccc(C)cc7c(c65)c(c2c1)c34", "note": "[DTHe, dimethyl tetrahydroxy helianthrone]", "values": [{"measurement": "competitive quenching of verteporfin-mediated phototoxicity relative to hypericin", "setting": "ARPE cells; ARPE cells, 10 and 20 μg/ml", "result": "much less effective"}, {"measurement": "cell viability", "setting": "ARPE cells; [5]", "result": 7.5, "unit": "%"}, {"measurement": "cell viability", "setting": "ARPE cells; [6]", "result": 6, "unit": "%"}]}
{"compound": "Cc1cc(O)c2c(=O)c3c(O)cc(O)c4c5c(O)cc(O)c6c(=O)c7c(O)cc(C)c8c1c2c(c34)c(c78)c65", "note": "[hypericin]", "values": [{"measurement": "viability at 20 µM", "setting": "ARPE-19 cells; read-out: percent cell viability, verteporfin 0.25 μg/ml plus hypericin 20 μM, 0.75 J/cm^2 >650 nm (FIG. 2A)", "result": 60, "unit": "%"}, {"measurement": "viability at 20 µM", "setting": "ARPE-19 cells; read-out: percent cell viability, verteporfin 0.5 μg/ml plus hypericin 20 μM, 0.75 J/cm^2 >650 nm (FIG. 2A)", "result": 25, "unit": "%"}, {"measurement": "cell viability preserved", "setting": "ARPE-19 cells; verteporfin 2 μg/ml, hypericin loaded before photosensitization, RPE or endothelial cells, cell line not specified", "result": "up to 46.8%"}, {"measurement": "viability at 20 µM", "setting": "EH endothelial cells; read-out: EH cell viability, verteporfin 0.1 μg/ml plus hypericin 20 μM, 0.96 J/cm^2 (FIG. 3A)", "result": 73, "unit": "%"}, {"measurement": "viability at 20 µM", "setting": "EH endothelial cells; read-out: EH cell viability, verteporfin 0.25 μg/ml plus hypericin 20 μM, 0.96 J/cm^2 (FIG. 3A)", "result": 81, "unit": "%"}, {"measurement": "viability at 20 µM", "setting": "EH endothelial cells; read-out: EH cell viability, verteporfin 0.5 μg/ml plus hypericin 20 μM, 0.96 J/cm^2 (FIG. 3A)", "result": 49, "unit": "%"}, {"measurement": "EH cell protection from verteporfin-induced phototoxicity", "setting": "EH endothelial cells; higher doses of light irradiation, 1.73 J/cm^2 (FIG. 3B)", "result": "also maintained at higher doses of light irradiation, yet the absolute levels of protection declined"}, {"measurement": "cell viability", "setting": "ARPE cells; [5]", "result": 35, "unit": "%"}, {"measurement": "cell viability", "setting": "ARPE cells; [6]", "result": 32, "unit": "%"}, {"measurement": "retinal distribution of hypericin fluorescence", "setting": "[1]; 15 minutes after 2 mg/kg i.v., rats (FIG. 6A)", "result": "confined to the choroidal blood vessels; also recorded: confined mainly to the vasculature"}, {"measurement": "retinal distribution of hypericin fluorescence", "setting": "[1]; 2 hrs after 2 mg/kg i.v., rats (FIG. 6B)", "result": "spreads to the entire retina; also recorded: extravasated to the surrounding tissue was less evident within the vasculature and spread through the choroid"}, {"measurement": "retinal distribution of hypericin fluorescence", "setting": "[1]; 6 hrs after 2 mg/kg i.v., rats (FIG. 6C)", "result": "present only in the retina and not in the blood vessels; also recorded: spread to the entire retina"}, {"measurement": "confinement to the choroidal vasculature", "setting": "[1]; after i.v. administration to rats (discussion)", "result": "mainly confined to the choroidal vasculature for up to one hour"}, {"measurement": "bioavailability to the retina", "setting": "[1]; hypericin 2 mg/kg i.v. tail vein, rats", "result": "bioavailable to the retina"}, {"measurement": "clearance from choroidal vessels and tissue accumulation", "setting": "[1]; rat, in vivo, iv", "result": "beyond 2 hrs was cleared from the choroidal vessels and accumulated in the extravascular choroid and RPE"}, {"measurement": "tissue biodistribution", "setting": "[2]", "result": "sequester in various tissues for many hours"}, {"measurement": "alpha half-life in the circulation", "setting": "[3]; circulation", "result": "1 to 2", "unit": "h"}, {"measurement": "elimination half-life", "setting": "[3]; human, in vivo", "result": "~48", "unit": "h"}, {"measurement": "gamma elimination half life from tissues", "setting": "[3]; in vivo", "result": "approximately 48 hrs"}]}
{"compound": "verteporfin", "values": [{"measurement": "time remaining in the intravascular compartment", "setting": "[4]", "result": 30, "unit": "min"}]}
